Measurements published in US12083082B2, “Methods for treating neurodegenerative disorders” (Alzheon, Inc., priority 2018, dated 2024).
“Also recorded” adds a separate entry of the source.

Biological target: T1, recombinant human Aβ42 peptide (Homo sapiens, UniProt P05067)
T1 construct: recombinant human Aβ42 peptide; purchased BioLegend 843801
Test: Ion mobility mass spectrometry (IMS MS) anti-Aβ42 oligomer activity / binding study
Format: biochemical
Set-up: key to Presence of Aβ42 Pentamer / Presence of Aβ42 Hexamer / Presence of Aβ42 Decamer / Presence of Aβ42 Dimer / Presence of Aβ42 Trimer / Presence of Aβ42 Tetramer: Y = yes, presence of oligomer species; N = no presence of oligomer species
Method: The conditions used for mass spectrometry, using a Waters Synapt G2-S, were as follows: positive polarity in sensitivity mode, capillary=2.5 kV, nebulizer=2 mbar, source temperature=80° C., desolvation temperature=60° C., sample cone setting=35 V, source offset setting=60 V, and mass range=500 to 4000 m/z. These conditions were maintained throughout the study to ensure consistency of the data and to avoid influencing the detection of oligomers due to preferential ionization conditions.
Samples were directly infused into the mass spectrometer at a flow rate of 10 μL/min using a Protea PM-1000 Syringe Pump and Hamilton 1 mL Syringe. The data acquisition of the amyloid peptide was performed using a Waters Synapt G2-S quadrupole time of flight mass spectrometer (Q-TOF MS) with traveling wave ion mobility (Waters Corp., Milford, MA). The data were acquired using the systems sensitivity mode to allow for the detection of the less abundant oligomers. Samples were infused at room temperature. The IMS MS studies were conducted at Protea, Inc. (Morgantown, WV).
1 mg of recombinant human Aβ42 peptide from BioLegend (99% purity, cat #843801) was reconstituted in 200 μL of Fisher Optima LC/MS grade water (cat #W6-1) and vortexed vigorously for 2 minutes to solubilize the peptide creating a 5 mg/mL solution. Samples were then diluted to a final concentration of 22 pmol/μL prior to incubation. The sample mixtures were then incubated at room temperature for 0, 4 and 24 hours. After the acquisition of incubated samples was completed, the raw data were analyzed using the Waters MassLynx v2.4 suite with DriftScover v2.7 to visualize drift times for the peptide.
Aβ42 species characterization using IMS MS was performed by direct infusion at 22 pmol/μL in water. The peptide was prepared in water to maintain the native state conformation of the peptide and ion mobility data acquisition was performed to detect and characterize the conformational changes of the native state monomer and any oligomers that may have formed during the incubation.
The data acquisition for Aβ42 peptide was performed using a Waters Synapt G2-S quadrupole time of flight mass spectrometer (Q-TOF MS) with traveling wave ion mobility (Waters Corp., Milford, MA). The data were acquired using the systems sensitivity mode to allow for the detection of the less abundant oligomers. Samples were infused at room temperature as above.
1 mg of 3-SPA was reconstituted in 1 mL of Fisher Optima LC/MS grade water (cat #W6-1) and vortexed vigorously for 2 minutes until completely dissolved. The sample was then diluted to create […], and 22,000 pmol/μL solutions to perform a 100-fold, and 1,000-fold molar excess for the binding experiments with Aβ42 peptide.
1 mg of recombinant human Aβ42 peptide was reconstituted in 200 μL of Fisher Optima LC/MS grade water and vortexed vigorously to solubilize to a 5 mg/mL solution. Samples were then diluted to their final concentrations prior to incubation. The sample mixtures were incubated at room temperature for 0, 4 and 24 hours, followed by analysis as described above.
To address the high conformational flexibility of Aβ42 and to characterize its interaction with 3-SPA, we used ion mobility mass spectrometry (IMS), with a quadrupole time of flight mass spectrometer (Q-TOF MS) with traveling wave ion mobility. Resulting effect of modulation of Aβ conformational space is the prevention of oligomer formation. We have found not only concentration dependency but also time-dependency of this anti-Aβ42 oligomeric effect of 3-SPA as indicated in FIG. 3 and FIG. 4. 100- vs 1,000-fold molar excess of 3-SPA over Aβ42 results in a different sub-species profile of inhibition of Aβ42 oligomer formation. The activity is also compared with the same excess dependency of tramiprosate.

[1] = 100:1 excess ratio compound:protein
[2] = 1000:1 excess ratio compound:protein

T1 sequence (P05067 672-713 limits assumed): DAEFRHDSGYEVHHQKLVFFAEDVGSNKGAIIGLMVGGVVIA

- Presence of Aβ42 Decamer [1]: N
- Presence of Aβ42 Dimer [1]: Y
- Presence of Aβ42 Hexamer [1]: Y
- Presence of Aβ42 Pentamer [1]: Y
- Presence of Aβ42 Tetramer [1]: Y
- Presence of Aβ42 Trimer [1]: Y
- Presence of Aβ42 Decamer [2]: N
- Presence of Aβ42 Dimer [2]: N
- Presence of Aβ42 Hexamer [2]: N
- Presence of Aβ42 Pentamer [2]: Y
- Presence of Aβ42 Tetramer [2]: N
- Presence of Aβ42 Trimer [2]: N
SMILES: O=C(O)CCS(=O)(=O)O [3-SPA, 3-sulfopropanoic acid]
- Inhibition of formation of Aβ42 oligomers (in words) (4 hr incubation, ratio 1:1000): inhibits the formation of oligomers with the exception of dimers, trimers and pentamers; also recorded: Detection of Aβ42 dimers, trimers and pentamers
- Inhibition of formation of Aβ42 oligomers (in words) (24 hours incubation, 1,000-fold excess): Near complete prevention of formation of Aβ42 oligomers except for pentamers; also recorded: the only oligomeric species not inhibited were pentamers of Aβ42; also recorded: Only pentamers were detected
